This is an account of results in ChEMBL document CHEMBL3860050, “Triterpenoids from Momordica balsamina: Reversal of ABCB1-mediated multidrug resistance” (Bioorg Med Chem, 2016).

By IC50 is commonly meant the concentration at which inhibition is half-maximal. Lower therefore signals inhibition by little substance.

In data set [1] the target is T1, ATP-dependent translocase ABCB1 (Homo sapiens, UniProt P08183). Description: Inhibition of MDR1-mediated efflux-pump activity in mouse L5178Y cells expressing human MDR1 assessed as side scattered light at 20 uM preincubated for 10 mins followed by rhodamine-123 addition measured after 20 mins by flow cytometry (reference value: 194.6 to 286.4). Format: cell-based. (Flow cytometry measures light scatter and fluorescence of single cells or particles in a stream.)

The target of data set [2] is T1, ATP-dependent translocase ABCB1. Description: Inhibition of MDR1-mediated efflux-pump activity in mouse L5178Y cells expressing human MDR1 assessed as forward scattered light at 20 uM preincubated for 10 mins followed by rhodamine-123 addition measured after 20 mins by flow cytometry (reference value: 455.7 to 509.9). It is filed as cell-based.
Data set [3] has the same target. In words: Inhibition of MDR1 in mouse L5178Y cells expressing human MDR1 assessed as doxorubicin-induced antiproliferative activity by measuring combination index at 11.3:1 compound to doxorubicin ratio measured after 48 hrs by MTT assay. It is filed as cell-based. A general note: Tetrazolium dyes change colour on reduction, which living cells bring about.
Data set [4] has the same target. In words: Inhibition of MDR1-mediated efflux-pump activity in mouse L5178Y cells expressing human MDR1 assessed as fluorescence activity ratio at 20 uM preincubated for 10 mins followed by rhodamine-123 addition measured after 20 mins by flow cytometry. It is filed as cell-based.
Data set [5] shares this target. Description: Inhibition of MDR1-mediated efflux-pump activity in mouse L5178Y cells expressing human MDR1 assessed as forward scattered light at 2 uM preincubated for 10 mins followed by rhodamine-123 addition measured after 20 mins by flow cytometry (reference value: 455.7 to 509.9). It is filed as cell-based.
For data set [6] the target is unchanged. In words: Inhibition of MDR1-mediated efflux-pump activity in mouse L5178Y cells expressing human MDR1 assessed as side scattered light at 2 uM preincubated for 10 mins followed by rhodamine-123 addition measured after 20 mins by flow cytometry (reference value: 194.6 to 286.4). It is filed as cell-based.
The target is the same in data set [7]. In words: Inhibition of MDR1-mediated efflux-pump activity in mouse L5178Y cells expressing human MDR1 assessed as fluorescence activity ratio at 2 uM preincubated for 10 mins followed by rhodamine-123 addition measured after 20 mins by flow cytometry. Format: cell-based.
Data set [8] shares this target. In words: Inhibition of MDR1-mediated efflux-pump activity in mouse L5178Y cells expressing human MDR1 assessed as mean fluorescence intensity at 20 uM preincubated for 10 mins followed by rhodamine-123 addition measured after 20 mins by flow cytometry (reference value: 7.1 to 18.6). Format: cell-based.
A short description of data set [9]: Antiproliferative activity against mouse L5178Y cells expressing human MDR1 measured after 72 hrs by MTT assay. It is filed as functional, cell-based.
Data set [10] deals with T1, ATP-dependent translocase ABCB1. Description: Inhibition of MDR1-mediated efflux-pump activity in mouse L5178Y cells expressing human MDR1 assessed as mean fluorescence intensity at 2 uM preincubated for 10 mins followed by rhodamine-123 addition measured after 20 mins by flow cytometry (reference value: 7.1 to 18.6). Format: cell-based.
Data set [11] is described as follows: Antiproliferative activity against mouse L5178Y cells measured after 72 hrs by MTT assay. Format: functional, cell-based.
For data set [12], the target named is T1, ATP-dependent translocase ABCB1. In words: Inhibition of MDR1 in mouse L5178Y cells expressing human MDR1 assessed as doxorubicin-induced antiproliferative activity by measuring combination index at 1.4:1 compound to doxorubicin ratio measured after 48 hrs by MTT assay. Format: cell-based.
For data set [13] the target is unchanged. In words: Inhibition of MDR1 in mouse L5178Y cells expressing human MDR1 assessed as doxorubicin-induced antiproliferative activity by measuring combination index at 5.7:1 compound to doxorubicin ratio measured after 48 hrs by MTT assay. It is filed as cell-based.

T1 sequence (P08183 whole entry): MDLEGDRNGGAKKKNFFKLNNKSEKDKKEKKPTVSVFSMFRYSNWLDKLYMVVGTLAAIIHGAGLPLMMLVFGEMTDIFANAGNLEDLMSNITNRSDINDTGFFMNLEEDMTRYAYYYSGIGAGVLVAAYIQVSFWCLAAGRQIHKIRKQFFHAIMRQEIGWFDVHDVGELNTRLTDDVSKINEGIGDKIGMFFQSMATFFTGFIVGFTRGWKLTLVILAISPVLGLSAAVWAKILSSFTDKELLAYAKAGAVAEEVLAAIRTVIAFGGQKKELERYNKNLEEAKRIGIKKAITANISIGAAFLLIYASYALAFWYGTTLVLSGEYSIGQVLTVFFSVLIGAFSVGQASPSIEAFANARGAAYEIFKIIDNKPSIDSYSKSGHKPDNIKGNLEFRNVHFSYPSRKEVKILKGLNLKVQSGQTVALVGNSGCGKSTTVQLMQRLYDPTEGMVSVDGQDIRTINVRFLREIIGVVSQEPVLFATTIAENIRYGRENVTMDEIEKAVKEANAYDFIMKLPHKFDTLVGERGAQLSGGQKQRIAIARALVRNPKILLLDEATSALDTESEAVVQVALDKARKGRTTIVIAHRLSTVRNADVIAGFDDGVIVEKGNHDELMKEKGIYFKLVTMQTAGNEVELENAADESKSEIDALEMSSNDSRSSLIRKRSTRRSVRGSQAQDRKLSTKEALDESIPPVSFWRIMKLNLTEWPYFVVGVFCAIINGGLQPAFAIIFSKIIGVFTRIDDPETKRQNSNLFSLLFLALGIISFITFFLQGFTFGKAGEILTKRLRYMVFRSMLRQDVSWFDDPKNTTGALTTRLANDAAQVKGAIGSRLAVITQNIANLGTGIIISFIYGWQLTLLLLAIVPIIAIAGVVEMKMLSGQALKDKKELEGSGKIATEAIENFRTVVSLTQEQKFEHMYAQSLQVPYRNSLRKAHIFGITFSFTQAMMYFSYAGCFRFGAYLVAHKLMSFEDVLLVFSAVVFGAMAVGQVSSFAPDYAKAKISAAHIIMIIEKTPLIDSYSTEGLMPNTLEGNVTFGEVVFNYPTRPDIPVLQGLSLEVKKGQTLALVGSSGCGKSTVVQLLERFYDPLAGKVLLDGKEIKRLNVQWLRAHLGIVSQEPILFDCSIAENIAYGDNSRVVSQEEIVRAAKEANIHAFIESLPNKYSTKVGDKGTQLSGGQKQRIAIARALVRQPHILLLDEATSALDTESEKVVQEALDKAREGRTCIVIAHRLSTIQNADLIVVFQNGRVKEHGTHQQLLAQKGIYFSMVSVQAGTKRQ

In the case of `CC(C)=C[C@H](O)C[C@@H](C)[C@H]1CC[C@@]2(C)[C@@H]3[C@@H](O)C=C4[C@@H](CC[C@H](O)[C@]4(C)CO)[C@]3(C)CC[C@]12C` [BALSAMINOL A], the Activity in data set [1] was 260; in data set [2], 454.5; in [5], 432.9; in data set [6], 259. The CI in data set [3] worked out at 0.503. Moreover, the Ratio in [4] is given as 47.6; in data set [7], 1.5. In addition, the Flu intensity in data set [8] was determined as 766.1; in data set [10], 20.1. Also, the IC50 was 12.6 µM in [9] and 7.2 µM in data set [11].
As to `CO[C@H]1C=C2[C@@H](CC[C@H](O)C2(C)C)[C@]2(C)C[C@@H](O)[C@]3(C)[C@@H]([C@H](C)C/C=C/C(C)(C)O)CC[C@@]3(C)[C@H]12`, the Activity came out at 235.8 in data set [1], 585 in [2], 568.6 in data set [5] and 249.6 in [6]. Besides, the Ratio in [4] is given as 38.2; in data set [7] it was 2.7. In addition, the CI in [12] is 0.393. The values for the Flu intensity in data set [8] and in data set [10] were 391.6 and 27.2, respectively. The figures for the IC50 in data set [9] and in [11] were 46.3 µM and 44.4 µM, respectively.
As to `CO[C@H]1C=C2[C@@H](CC[C@H](O)[C@]2(C)CO)[C@]2(C)CC[C@]3(C)[C@@H]([C@H](C)C[C@@H](O)C=C(C)C)CC[C@@]3(C)[C@H]12` [BALSAMINOL B], the Activity amounted to 260.7 in data set [1], 461.8 in [2], 439.5 in data set [5] and 258.8 in [6]. For the same molecule, the Ratio in data set [4] is 68.7; in data set [7], 7.3. For the same molecule, the CI in data set [12] is reported as 0.378. Further, the Flu intensity in [8] was found to be 899.1; in data set [10], 95.7. For the same molecule, the results for the IC50 in data set [9] and in data set [11] were 31 µM and 7.7 µM, respectively.
With `CO[C@H]1C=C2[C@@H](CC[C@H](O)C2(C)C)[C@]2(C)C[C@@H](O)[C@]3(C)[C@@H]([C@H](C)C[C@@H](O)C=C(C)C)CC[C@@]3(C)[C@H]12` [CUCURBALSAMINOL C], the Activity in [1] came to 237.6; in [2], 564.3; in [5] it was 568.5; in data set [6], 241.8. Further, the Ratio is on record as 19.8 in data set [4] and 3.1 in [7]. Further, the Flu intensity in data set [8] was found to be 202.8; in data set [10] it was 31.6. Also, the IC50 stood at 34.6 µM in [9] and 19.5 µM in data set [11]. Further, the CI in [13] was 0.416.
For `CC(C)=C[C@H](O)C[C@@H](C)[C@H]1CC[C@@]2(C)[C@@H]3C=C[C@@]45OC[C@]3(CC[C@]12C)[C@@H]4CC[C@H](O)C5(C)C` [KARAVILAGENIN E], the Activity is listed as 242 in data set [1], 474 in data set [2], 568.8 in data set [5] and 234.2 in [6]. For the same molecule, the Ratio in data set [4] is 72.6; in [7] it was 3.8. The Flu intensity in data set [8] was found to be 743.8; in data set [10] it was 38.4. The IC50 in data set [9] amounted to 45.2 µM; in [11], 21.3 µM. Besides, the CI in data set [13] amounted to 0.437.
As for `CO[C@H]1C=C2[C@@H](CC[C@H](O)C2(C)C)[C@]2(C)CC[C@]3(C)[C@@H]([C@H](C)C[C@H](C=C(C)C)O[C@@H]4O[C@H](CO)[C@@H](O)[C@H](O)[C@H]4O)CC[C@@]3(C)[C@H]12`, the Activity in data set [1] was 269.2; in data set [2] it was 457.3; in [5] it was 446.8; in data set [6], 266.8. Further, the values for the Ratio in data set [4] and in data set [7] were 49.1 and 1, respectively. Also, the values for the Flu intensity in data set [8] and in data set [10] were 643.1 and 12.4, respectively. In addition, the IC50 in data set [9] was 32.8 µM; in [11], 3.5 µM. Further, in data set [13], the CI is recorded as 0.956.
